Source: patent EP0255100A2, “Use of trimetrexate and its salts for the preparation of pharmaceutical compositions for treating infections of the mycobacterium-avium-intracellulare complex” (WARNER-LAMBERT COMPANY, priority 1986, dated 1988)
Values after ≈ are worked out from the molar mass of the structure shown. Where two headings read alike, the source gives them in different places.

Assays:
[1] = system: Mycobacterium avium-intracellulare complex; assay: minimal inhibitory concentration by the standard T100 growth inhibition method; format: cell-based
Method: The activity of trimetrexate at several concentrations ranging from 2 to 64 micrograms/ml was tested against fifteen strains of Mycobacterium avium-intracellulare isolated from AIDS patients who were also suffering from infections of the MAI complex. Drug activity was measured using both a radiometric assay and growth inhibition analysis by the T100 method. (S.H. Siddiqi et al., J. Clin. Microbiol., 22: 919-923 (1985); S.H. Siddiqi et al., J. Clin. Microbiol., 13: 908-912 (1981); and D.E. Snyder et al., Am. Rev. Respir. Dis., 123: 402-406 (1981).
In a second test, the minimal inhibitory concentration (MIC) required to inhibit 99% and 99.9% growth of the test strains of the Mycobacterium avium-intracellulare complex was determined employing the standard T100 method. The results appear in Table II where the MIC value is given for each of the tested MAI complex strains.

[2] = system: Mycobacterium avium-intracellulare complex; assay: radiometric assay (14CO2 release from 14C palmitic acid in 7H12 medium, BACTEC 460), percent microorganism killed; format: cell-based; conditions: for killing at 16 µg/mL: Mycobacterium avium-intracellulare, 168 h, read-out: Percent Microorganism Killed One Week Post
[3] = MAI Complex Strain 109, trimetrexate 16 µg/ml

`COc1cc(NCc2ccc3nc(N)nc(N)c3c2C)cc(OC)c1OC` [trimetrexate, 5-methyl-6-{[(3,4,5-trimethoxyphenyl)amino]methyl}-2-4-quinazolinediamine] showed an MIC ([1]; MAI Complex Strain 100, 99% growth inhibition, read-out: Approximate Minimal Inhibitory Concentration (MIC) 99%) of 2 µg/mL (≈ 5.41 µM), an MIC ([1]; MAI Complex Strain 100, 99.9% growth inhibition, read-out: Approximate Minimal Inhibitory Concentration (MIC) 99.9%) of 2 µg/mL (≈ 5.41 µM) and an MIC ([1]; MAI Complex Strain 101, 99% growth inhibition, read-out: Approximate Minimal Inhibitory Concentration (MIC) 99%) of 4 µg/mL (≈ 10.8 µM). For the same compound, the MIC ([1]; MAI Complex Strain 101, 99.9% growth inhibition, read-out: Approximate Minimal Inhibitory Concentration (MIC) 99.9%) was 4 µg/mL (≈ 10.8 µM), the MIC ([1]; MAI Complex Strain 102, 99% growth inhibition, read-out: Approximate Minimal Inhibitory Concentration (MIC) 99%) was 8 µg/mL (≈ 21.7 µM) and the MIC ([1]; MAI Complex Strain 102, 99.9% growth inhibition, read-out: Approximate Minimal Inhibitory Concentration (MIC) 99.9%) was 8 µg/mL (≈ 21.7 µM). It also gave an MIC ([1]; MAI Complex Strain 103, 99% growth inhibition, read-out: Approximate Minimal Inhibitory Concentration (MIC) 99%) of 2 µg/mL (≈ 5.41 µM), an MIC ([1]; MAI Complex Strain 103, 99.9% growth inhibition, read-out: Approximate Minimal Inhibitory Concentration (MIC) 99.9%) of 2 µg/mL (≈ 5.41 µM) and an MIC ([1]; MAI Complex Strain 104, 99% growth inhibition, read-out: Approximate Minimal Inhibitory Concentration (MIC) 99%) of 2 µg/mL (≈ 5.41 µM). For the same compound, the MIC ([1]; MAI Complex Strain 104, 99.9% growth inhibition, read-out: Approximate Minimal Inhibitory Concentration (MIC) 99.9%) was 2 µg/mL (≈ 5.41 µM), the MIC ([1]; MAI Complex Strain 105, 99% growth inhibition, read-out: Approximate Minimal Inhibitory Concentration (MIC) 99%) was 2 µg/mL (≈ 5.41 µM) and the MIC ([1]; MAI Complex Strain 105, 99.9% growth inhibition, read-out: Approximate Minimal Inhibitory Concentration (MIC) 99.9%) was 2 µg/mL (≈ 5.41 µM). The MIC ([1]; MAI Complex Strain 107, 99% growth inhibition, read-out: Approximate Minimal Inhibitory Concentration (MIC) 99%) was 2 µg/mL (≈ 5.41 µM), the MIC ([1]; MAI Complex Strain 107, 99.9% growth inhibition, read-out: Approximate Minimal Inhibitory Concentration (MIC) 99.9%) was 2 µg/mL (≈ 5.41 µM) and the MIC ([1]; MAI Complex Strain 108, 99% growth inhibition, read-out: Approximate Minimal Inhibitory Concentration (MIC) 99%) was 2 µg/mL (≈ 5.41 µM). The MIC ([1]; MAI Complex Strain 108, 99.9% growth inhibition, read-out: Approximate Minimal Inhibitory Concentration (MIC) 99.9%) was 2 µg/mL (≈ 5.41 µM), the MIC ([1]; MAI Complex Strain 109, 99% growth inhibition, read-out: Approximate Minimal Inhibitory Concentration (MIC) 99%) was 2 µg/mL (≈ 5.41 µM) and the MIC ([1]; MAI Complex Strain 109, 99.9% growth inhibition, read-out: Approximate Minimal Inhibitory Concentration (MIC) 99.9%) was 2 µg/mL (≈ 5.41 µM). For the same compound, the MIC ([1]; MAI Complex Strain 110, 99% growth inhibition, read-out: Approximate Minimal Inhibitory Concentration (MIC) 99%) was 2 µg/mL (≈ 5.41 µM), the MIC ([1]; MAI Complex Strain 110, 99.9% growth inhibition, read-out: Approximate Minimal Inhibitory Concentration (MIC) 99.9%) was 2 µg/mL (≈ 5.41 µM) and the MIC ([1]; MAI Complex Strain 111, 99% growth inhibition, read-out: Approximate Minimal Inhibitory Concentration (MIC) 99%) was 2 µg/mL (≈ 5.41 µM). For the same compound, the MIC ([1]; MAI Complex Strain 111, 99.9% growth inhibition, read-out: Approximate Minimal Inhibitory Concentration (MIC) 99.9%) was 2 µg/mL (≈ 5.41 µM), the MIC ([1]; MAI Complex Strain 113, 99% growth inhibition, read-out: Approximate Minimal Inhibitory Concentration (MIC) 99%) was 2 µg/mL (≈ 5.41 µM) and the MIC ([1]; MAI Complex Strain 113, 99.9% growth inhibition, read-out: Approximate Minimal Inhibitory Concentration (MIC) 99.9%) was 2 µg/mL (≈ 5.41 µM). For the same compound, the MIC ([1]; MAI Complex Strain 116, 99% growth inhibition, read-out: Approximate Minimal Inhibitory Concentration (MIC) 99%) was 2 µg/mL (≈ 5.41 µM), the MIC ([1]; MAI Complex Strain 116, 99.9% growth inhibition, read-out: Approximate Minimal Inhibitory Concentration (MIC) 99.9%) was 2 µg/mL (≈ 5.41 µM) and the MIC ([1]; MAI Complex Strain 117, 99% growth inhibition, read-out: Approximate Minimal Inhibitory Concentration (MIC) 99%) was 2 µg/mL (≈ 5.41 µM). The MIC ([1]; MAI Complex Strain 117, 99.9% growth inhibition, read-out: Approximate Minimal Inhibitory Concentration (MIC) 99.9%) was 2 µg/mL (≈ 5.41 µM), the MIC ([1]; MAI Complex Strain 128, 99% growth inhibition, read-out: Approximate Minimal Inhibitory Concentration (MIC) 99%) was 2 µg/mL (≈ 5.41 µM) and the MIC ([1]; MAI Complex Strain 128, 99.9% growth inhibition, read-out: Approximate Minimal Inhibitory Concentration (MIC) 99.9%) was 2 µg/mL (≈ 5.41 µM). The MIC ([1]; every strain of the MAI complex tested (summary of Table II), read-out: concentration exhibiting inhibitory activity) was ≤ 8 µg/mL, the “Percent Microorganism Killed One Week Post” value [2, 3] was 42% and the killing at 16 µg/mL ([2]; MAI Complex Strain 100, trimetrexate 16 µg/ml) was 65%. The killing at 16 µg/mL ([2]; MAI Complex Strain 101, trimetrexate 16 µg/ml) was 68%, the killing at 16 µg/mL ([2]; MAI Complex Strain 108, trimetrexate 16 µg/ml) was 70% and the killing at 16 µg/mL [2, 3] was 42%. The killing at 16 µg/mL ([2]; MAI Complex Strain 116, trimetrexate 16 µg/ml) was 91% and the bactericidal activity ([2]; all strains of the MAI complex tested, trimetrexate 16 µg/ml alone) was “potent bactericidal activity”.
